Results reported in patent US20240150377A1, “MODULATORS OF CYSTIC FIBROSIS TRANSMEMBRANE CONDUCTANCE REGULATOR” (VERTEX PHARMACEUTICALS INCORPORATED, priority 2020, published 2024).

Molecular target: T1, CFTR (Homo sapiens, UniProt P13569, DEL508-508)
T1 construct: endogenous in cells; host or cells: primary human bronchial epithelial cells from CF subjects (F508del/MF-HBE), differentiated at air-liquid interface
Experiment: HBE2 assay: Ussing chamber assay of CFTR-mediated short-circuit currents
Type: cell-based
Details: F508del/MF-HBE cells, 18-24 hours, 20% human serum; for Emax: read-out: HBE2 Max activity (%)
Procedure, shortened: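 Corrector activity read as CFTR-dependent ISC (μA/cm^2): peak forskolin current minus post-inhibitor steady state. Measured at 37 °C, voltage clamp at 0 mV, on F508del/MF-HBE epithelia grown >14 days air-liquid interface in Ussing chambers.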

[1] = 3 μM corrector, with 44 nM potentiator

T1 sequence (P13569 with tags, fused parts or gaps DEL508-508): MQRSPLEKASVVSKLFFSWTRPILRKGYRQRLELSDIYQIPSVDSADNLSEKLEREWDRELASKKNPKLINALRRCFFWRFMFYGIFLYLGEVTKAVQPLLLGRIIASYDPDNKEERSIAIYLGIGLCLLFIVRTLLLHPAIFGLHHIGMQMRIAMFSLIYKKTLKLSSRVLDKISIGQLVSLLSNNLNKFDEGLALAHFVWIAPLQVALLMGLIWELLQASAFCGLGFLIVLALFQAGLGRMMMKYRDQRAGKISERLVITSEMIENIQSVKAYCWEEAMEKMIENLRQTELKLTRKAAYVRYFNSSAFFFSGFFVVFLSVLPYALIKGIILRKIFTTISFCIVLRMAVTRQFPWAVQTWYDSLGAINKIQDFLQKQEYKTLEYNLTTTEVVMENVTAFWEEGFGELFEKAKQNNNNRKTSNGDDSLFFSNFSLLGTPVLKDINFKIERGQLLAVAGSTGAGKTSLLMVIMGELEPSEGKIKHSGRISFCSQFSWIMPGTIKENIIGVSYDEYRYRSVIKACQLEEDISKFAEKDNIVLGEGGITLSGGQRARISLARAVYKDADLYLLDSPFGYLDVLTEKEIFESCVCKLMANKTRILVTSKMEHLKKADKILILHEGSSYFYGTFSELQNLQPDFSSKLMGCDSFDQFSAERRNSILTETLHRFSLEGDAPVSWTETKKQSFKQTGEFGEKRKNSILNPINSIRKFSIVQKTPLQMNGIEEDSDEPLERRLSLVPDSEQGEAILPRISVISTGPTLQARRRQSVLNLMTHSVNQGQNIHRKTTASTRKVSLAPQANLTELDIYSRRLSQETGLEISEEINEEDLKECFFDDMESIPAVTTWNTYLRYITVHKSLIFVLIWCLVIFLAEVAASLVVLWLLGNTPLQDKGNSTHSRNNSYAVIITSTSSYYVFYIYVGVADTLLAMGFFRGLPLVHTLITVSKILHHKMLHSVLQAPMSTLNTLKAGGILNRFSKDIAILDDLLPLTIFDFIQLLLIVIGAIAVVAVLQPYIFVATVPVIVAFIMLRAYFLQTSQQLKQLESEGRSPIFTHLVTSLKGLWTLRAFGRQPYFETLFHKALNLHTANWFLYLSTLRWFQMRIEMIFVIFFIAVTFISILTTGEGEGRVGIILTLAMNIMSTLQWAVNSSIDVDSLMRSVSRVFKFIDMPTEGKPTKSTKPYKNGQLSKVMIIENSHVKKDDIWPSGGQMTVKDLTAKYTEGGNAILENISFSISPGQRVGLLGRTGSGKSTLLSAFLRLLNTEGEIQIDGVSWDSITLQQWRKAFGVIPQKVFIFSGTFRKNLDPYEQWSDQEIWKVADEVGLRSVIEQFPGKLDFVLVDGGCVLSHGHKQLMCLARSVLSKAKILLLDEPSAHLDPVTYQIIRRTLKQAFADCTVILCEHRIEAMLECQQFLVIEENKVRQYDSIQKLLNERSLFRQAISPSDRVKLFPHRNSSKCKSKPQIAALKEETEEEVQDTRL

Row | Compound | HBE2 Activity at 3 μM (%) [1] | HBE2 Activity at 3 μM (%) (3 μM, with 44 nM potentiator) | other results
1 | Cc1cccc(C)c1-c1cc2nc(n1)NS(=O)(=O)c1cccc(c1)C(=O)N(Cc1cncc(N3CCCOC4CCC43)n1)[C@H](CC(C)(C)C)CO2 (stereo partly drawn) [Compound 1332, (11R)-6-(2,6-Dimethylphenyl)-11-(2,2-dimethylpropyl)-12-[[6-(2-oxa-6-azabicyclo[5.2.0]nonan-6-yl)pyrazin-2-yl]methyl]-2,2-dioxo-9-oxa-2λ^6-thia-3,5,12,19-tetrazatricyclo[12.3.1.14,8]nonadeca-1(18),4(19),5,7,14,16-hexaen-13-one] | +++ (+++ is >60+) | – | –
2 | Cc1cccc(C)c1-c1cc2nc(n1)NS(=O)(=O)c1cccc(c1)C(=O)N(Cc1cncc(N3CCCC[C@H]3C)n1)[C@H](CC1CCCC1)CO2 [Compound 1847] | +++ (+++ is >60+) | – | –
3 | Cc1cccc(C)c1-c1cc2nc(n1)NS(=O)(=O)c1cccc(c1)C(=O)N(Cc1cncc(N(C)C3CCC3)n1)[C@H](CCC1CC1)CO2 [Compound 1684] | – | +++ (+++ is >60+) | EC50 (with 44 nM potentiator): < 1 µM; Emax (with 44 nM potentiator): > 60%
4 | Cc1cccc(C)c1-c1cc2nc(n1)NS(=O)(=O)c1cc(n(C)n1)C(=O)N(Cc1cncc(N(C)C3CCC3)n1)[C@H](CC(C)(C)C)CO2 [Compound 1944] | +++ (+++ is >60+) | – | –
5 | Cc1cccc(C)c1-c1cc2nc(n1)NS(=O)(=O)c1cccc(c1)C(=O)N(Cc1cnc3cc(C(C)C)n(C)c3n1)[C@H](CC(C)(C)F)CO2 [Compound 1819] | +++ (+++ is >60+) | – | –
6 | Cc1cccc(C)c1-c1cc2nc(n1)NS(=O)(=O)c1cccc(c1)C(=O)N(Cc1cncc(N3CCC4C3CC(=O)N4C)n1)[C@H](CC(C)(C)C)CO2 (some centres unmarked) [Compound 1639] | – | +++ (+++ is >60+) | –
7 | Cc1cccc(C)c1-c1cc2nc(n1)NS(=O)(=O)c1cccc(c1)C(=O)N(Cc1cnc3cc(C(C)C)n(C)c3n1)[C@H](CC1CC1)CO2 [Compound 1820] | +++ (+++ is >60+) | – | –
8 | Cc1cccc(C)c1-c1cc2nc(n1)NS(=O)(=O)c1cccc(c1)C(=O)N(Cc1cncc(N3CCCC[C@H]3C)n1)[C@H](CC1(C)CCC1)CO2 [Compound 1744] | +++ (+++ is >60+) | – | –
9 | Cc1cccc(C)c1-c1cc2nc(n1)NS(=O)(=O)c1cccc(c1)C(=O)N(Cc1cccc(N(C)C(C)C)n1)[C@H](CC1(C)CCC1)CO2 [Compound 1762] | +++ (+++ is >60+) | – | –
10 | Cc1cccc(C)c1-c1cc2nc(n1)NS(=O)(=O)c1cccc(c1)C(=O)N(Cc1cncc(N3CCC[C@H]3C)n1)[C@H](CC1CCCCC1)CO2 [Compound 1331, (11R)-11-(Cyclohexylmethyl)-6-(2,6-dimethylphenyl)-12-[[6-[(2R)-2-methylpyrrolidin-1-yl]pyrazin-2-yl]methyl]-2,2-dioxo-9-oxa-2^6-thia-3,5,12,19-tetrazatricyclo[12.3.1.14,8]nonadeca-1(18),4(19),5,7,14,16-hexaen-13-one] | +++ (+++ is >60+) | – | –
11 | CCC(CC)[C@@H]1COc2cc(-c3c(C)cccc3C)nc(n2)NS(=O)(=O)c2cccc(c2)C(=O)N1Cc1cncc(N(C)C2CCC2)n1 [Compound 1779] | +++ (+++ is >60+) | – | –
12 | Cc1cccc(C)c1-c1cc2nc(n1)NS(=O)(=O)c1cccc(c1)C(=O)N(Cc1cncc(N3CC[C@@H]4CN(C(=O)OC(C)(C)C)CC43)n1)[C@H](CC(C)(C)C)CO2 (stereo in doubt) [Compound 1649] | – | +++ (+++ is >60+) | –
13 | CCOc1cnc(CN2C(=O)c3cccc(c3)S(=O)(=O)Nc3nc(cc(-c4c(C)cccc4C)n3)OC[C@H]2CCC(C)C)nc1 [Compound 1599] | – | +++ (+++ is >60+) | –
14 | Cc1cccc(C)c1-c1cc2nc(n1)NS(=O)(=O)c1cccc(c1)C(=O)N(Cc1cncc(N(C)C3CCC3)n1)[C@H](CC1CC1)CO2 [Compound 1670] | – | +++ (+++ is >60+) | EC50 (with 44 nM potentiator): < 1 µM; Emax (with 44 nM potentiator): > 60%
15 | Cc1cccc(C)c1-c1cc2nc(n1)NS(=O)(=O)c1cccc(c1)C(=O)N(Cc1cncc(N(C)C3CC4(CC4)C3)n1)[C@H](COC(C)C)CO2 [Compound 1949] | +++ (+++ is >60+) | – | –
16 | Cc1cccc(C)c1-c1cc2nc(n1)NS(=O)(=O)c1cccc(c1)C(=O)N(Cc1cncc(N(C)C3CCC3)n1)[C@@H]1CCN(C3CC4(CCCC4)C3)C[C@H]1O2 [Compound 1768] | +++ (+++ is >60+) | – | –
17 | Cc1cccc(C)c1-c1cc2nc(n1)NS(=O)(=O)c1cccc(c1)C(=O)N(Cc1cncc(C3CCOCC3)n1)[C@H](CCC(C)(C)C)CO2 [Compound 1879] | +++ (+++ is >60+) | – | –
18 | Cc1cccc(C)c1-c1cc2nc(n1)NS(=O)(=O)c1cccc(c1)C(=O)N(Cc1cncc(N3CCC3CNC(=O)OC(C)(C)C)n1)[C@H](CC(C)(C)C)CO2 (some centres unmarked) [Compound 1699] | – | +++ (+++ is >60+) | –
19 | Cc1cccc(C)c1-c1cc2nc(n1)NS(=O)(=O)c1cccc(c1)C(=O)N(Cc1cncc(N(C)C3CCC3)n1)[C@H](C1CC3(CCC3)C1)CO2 (single isomer, unassigned) [Compound 1321, 12-[[6-[cyclobutyl(methyl)amino]pyrazin-2-yl]methyl]-6-(2,6-dimethylphenyl)-2,2-dioxo-11-spiro[3.3]heptan-2-yl-9-oxa-2λ^6-thia-3,5,12,19-tetrazatricyclo[12.3.1.14,8]nonadeca-1(18),4(19),5,7,14,16-hexaen-13-one] | – | ++ (++ is 30-60%) | –
20 | Cc1cccc(C)c1-c1cc2nc(n1)NS(=O)(=O)c1cccc(c1)C(=O)N(Cc1cncc(N(C)C3CCCC3)n1)[C@H](COC(C)C)CO2 [Compound 1948] | +++ (+++ is >60+) | – | –
21 | Cc1cccc(C)c1-c1cc2nc(n1)NS(=O)(=O)c1cccc(c1)C(=O)N(Cc1cncc(N(C)[C@H]3C[C@H](F)C3)n1)[C@H](CCC1CC1)CO2 [Compound 1916] | +++ (+++ is >60+) | – | –
22 | Cc1cccc(C)c1-c1cc2nc(n1)NS(=O)(=O)c1cccc(c1)C(=O)N(Cc1cncc(N3CCC[C@@H]4CC[C@@H]43)n1)[C@H](CC(C)(C)F)CO2 [Compound 1840] | +++ (+++ is >60+) | – | –
23 | Cc1cccc(C)c1-c1cc2nc(n1)NS(=O)(=O)c1cccc(c1)C(=O)N(Cc1cncc(N3CCCC[C@H]3C)n1)[C@@H](CCC(C)(C)F)CO2 (single isomer, unassigned) [Compound 1328] | ++ (++ is 30-60%) | – | –

The next lines start with results.

Row | HBE2 Activity at 3 μM (%) [1] | HBE2 Activity at 3 μM (%) (3 μM, with 44 nM potentiator) | Compound | other results
24 | +++ (+++ is >60+) | – | COC[C@@H](C)N(C)c1cncc(CN2C(=O)c3cccc(c3)S(=O)(=O)Nc3nc(cc(-c4c(C)cccc4C)n3)OC[C@H]2CCC(C)(C)C)n1 [Compound 1851] | –
25 | +++ (+++ is >60+) | – | Cc1cccc(C)c1-c1cc2nc(n1)NS(=O)(=O)c1cccc(c1)C(=O)N(Cc1cncc(N(C)C(C)C)n1)[C@H](CCC1CC1)CO2 [Compound 1718] | –
26 | +++ (+++ is >60+) | – | Cc1cccc(C)c1-c1cc2nc(n1)NS(=O)(=O)c1cccc(c1)C(=O)N(Cc1cncc(N3CCO[C@@H](C)[C@H]3C)n1)[C@H](CC(C)(C)C)CO2 (stereo in doubt) [Compound 1760] | –
27 | +++ (+++ is >60+) | – | Cc1cccc(C)c1-c1cc2nc(n1)NS(=O)(=O)c1cccc(c1)C(=O)N(Cc1cncc(N(C)CC(C)C)n1)[C@H](CC1CCC1)CO2 [Compound 1712] | EC50 (corrector at a range of concentrations with 44 nM potentiator): < 1 µM; Emax (with 44 nM potentiator): > 60%
28 | – | +++ (+++ is >60+) | COCC1(N(C)c2cncc(CN3C(=O)c4cccc(c4)S(=O)(=O)Nc4nc(cc(-c5c(C)cccc5C)n4)OC[C@H]3CC(C)(C)C)n2)CCC1 [Compound 1635] | –
29 | – | +++ (+++ is >60+) | Cc1cccc(C)c1-c1cc2nc(n1)NS(=O)(=O)c1cccc(c1)C(=O)N(Cc1cncc(N(C)CCOC(=O)N(C)C)n1)[C@H](CC(C)(C)C)CO2 [Compound 1667] | –
30 | +++ (+++ is >60+) | – | Cc1cccc(C)c1-c1cc2nc(n1)NS(=O)(=O)c1cccc(c1)C(=O)N(Cc1cncc(C3CCC3)n1)[C@H](CCC(C)(C)C)CO2 [Compound 1852] | –
31 | +++ (+++ is >60+) | – | Cc1cccc(C)c1-c1cc2nc(n1)NS(=O)(=O)c1cccc(c1)C(=O)N(Cc1cncc(N(C)CC(C)(C)C)n1)[C@H](CCC(C)C)CO2 [Compound 1795] | –
32 | – | +++ (+++ is >60+) | COC[C@@H]1CCN1c1cccc(CN2C(=O)c3cccc(c3)S(=O)(=O)Nc3nc(cc(-c4c(C)cccc4C)n3)OC[C@H]2CC(C)(C)C)n1 [Compound 1550] | –
33 | +++ (+++ is >60+) | – | Cc1cccc(C)c1-c1cc2nc(n1)NS(=O)(=O)c1cccc(c1)C(=O)N(Cc1cncc(N(C)[C@H]3C[C@H](C)C3)n1)[C@H](CCC(C)(C)C)CO2 [Compound 1885] | –
34 | +++ (+++ is >60+) | – | Cc1cccc(C)c1-c1cc2nc(n1)NS(=O)(=O)c1cccc(c1)C(=O)N(Cc1cncc(N3CC(C)(C)[C@H]3C(C)C)n1)[C@H](CC(C)(C)C)CO2 [Compound 1750] | –
35 | – | +++ (+++ is >60+) | CO[C@H]1C[C@@H](N(C)c2cncc(CN3C(=O)c4cccc(c4)S(=O)(=O)Nc4nc(cc(-c5c(C)cccc5C)n4)OC[C@H]3CC(C)(C)C)n2)C1 [Compound 1611] | –
36 | +++ (+++ is >60+) | – | CCN(CCOC)c1cncc(CN2C(=O)c3cccc(c3)S(=O)(=O)Nc3nc(cc(-c4c(C)cccc4C)n3)OC[C@H]2CCC(C)(C)C)n1 [Compound 1811] | –
37 | – | +++ (+++ is >60+) | COCCCN(C)c1cncc(CN2C(=O)c3cccc(c3)S(=O)(=O)Nc3nc(cc(-c4c(C)cccc4C)n3)OC[C@H]2CC(C)(C)C)n1 [Compound 1693] | –
38 | – | +++ (+++ is >60+) | Cc1cccc(C)c1-c1cc2nc(n1)NS(=O)(=O)c1cccc(c1)C(=O)N(Cc1cncc(N(C)CC3(C)COC3)n1)[C@H](CC(C)(C)C)CO2 [Compound 1613] | –
